Assay results reported in patent US10660967B2, “Curcumin conjugates and methods of use thereof” (priority 2016, dated 2020).

Tested on: carrageenan induced paw edema
Assay: Anti-inflammatory activity: acute carrageenan induced paw edema in rats
Format: in vivo, Wister rats
Conditions: 10 mg kg^−1 indomethacin mol equivalent; for % inhibition of edema / Mean edema thickness: intraperitoneally; for Mean edema thickness: mean ± SE; for Potency (% inhibition of edema relative to that of indomethacin reference standard): at 4 h effect
Method: The anti-inflammatory activity of the tested compounds was determined in vivo by the acute carrageenan induced paw edema standard method in rats. See, Naumov, et al., Bioorg. Med. Chem. Lett, 25: 2314-2320 (2015), Tiwari, et al., Org. Biomol. Chem, 12: 7238-7249 (2014), Girgis, et al., Eur. J. Med. Chem, 50: 1-8 (2012), Barsoum, et al., Eur. J. Med. Chem, 44: 2172-2177 (2009), Girgis, et al., Eur. J. Med. Chem, 44: 1972-1977 (2009), Girgis, et al., Eur. J. Med. Chem, 44: 1257-1264 (2009), Girgis, et al., Eur. J. Med. Chem, 44: 91-100 (2009), Girgis, et al., Eur. J. Med. Chem, 43: 2116-2121 (2008), Girgis, et al., Bioorg. Med. Chem, 14: 8527-8532 (2006), and Barsoum, et al., Bioorg. Med. Chem, 14: 3929-3937 (2006).
Adult Wister rats of either sex (pregnant female animals were excluded) weighing 120-150 g were divided into 18 groups of 6 animals each. […] The control group was given DMSO only. Carrageenan paw edema was induced by subcutaneous injection of freshly prepared 1% solution of carrageenan in saline (0.9%, 0.1 ml per rat) into subplantar tissue of the right hind paw of rats. The thickness of the paw was measured (in mm) after successive time intervals (1, 2,3,4 and 24 h) and compared with the initial hind paw thickness of each rat for determining the edema thickness. Data were collected, checked, revised and analyzed. Quantitative variables from normal distribution were expressed as means±SE “standard error”. The anti-inflammatory activity was expressed as percentage inhibition of edema thickness in treated animals in comparison with the control group according to eqn. (1)
Where, Vc and Vt are the mean of edema paw thickness for the control and tested compound treated animal groups, respectively.

Row | Compound | % inhibition of edema (1 h) [%] | Mean edema thickness (1 h) [mm] | % inhibition of edema (2 h) [%] | Mean edema thickness (2 h) [mm] | % inhibition of edema (3 h) [%] | Mean edema thickness (3 h) [mm] | % inhibition of edema (4 h) [%] | Mean edema thickness (4 h) [mm] | % inhibition of edema (24 h) [%] | Mean edema thickness (24 h) [mm] | Potency (% inhibition of edema relative to that of indomethacin reference standard)
1 | COc1ccc2c(c1)c(CC(=O)O)c(C)n2C(=O)c1ccc(Cl)cc1 [Compound 2] | 53 | 1.11 ± 0.12 | 59 | 0.85 ± 0.09 | 67 | 0.59 ± 0.06 | 87 | 0.18 ± 0.03 | 86 | 0.12 ± 0.02 | 100
2 | CC(C)Cc1ccc(C(C)C(=O)O)cc1 (stereo not shown) [Compound 3] | 20 | 1.93 ± 0.21 | 60 | 0.82 ± 0.13 | 65 | 0.63 ± 0.09 | 79 | 0.29 ± 0.01 | 14 | 0.71 ± 0.04 | 
3 | COc1cc(/C=C/C(=O)CC(=O)/C=C/c2ccc(O)c(OC)c2)ccc1O [Compound 4] | 12 | 2.12 ± 0.19 | 60 | 0.82 ± 0.11 | 75 | 0.45 ± 0.08 | 85 | 0.21 ± 0.08 | 36 | 0.53 ± 0.10 | 98
4 | COc1cc(/C=C/C(=O)CC(=O)/C=C/c2ccc(OC(=O)CNC(=O)OCc3ccccc3)c(OC)c2)ccc1OC(=O)CNC(=O)OCc1ccccc1 [Compound 5] | 64 | 0.87 ± 0.16 | 32 | 1.41 ± 0.19 | 37 | 1.13 ± 0.22 | 34 | 0.92 ± 0.20 | 0 | 0.83 ± 0.19 | 39
5 | COc1cc(/C=C/C(=O)CC(=O)/C=C/c2ccc(OC(=O)[C@H](C)NC(=O)OCc3ccccc3)c(OC)c2)ccc1OC(=O)[C@H](C)NC(=O)OCc1ccccc1 [Compound 6] | 56 | 1.05 ± 0.24 | 23 | 1.59 ± 0.21 | 22 | 1.40 ± 0.19 | 12 | 1.23 ± 0.25 | 0 | 0.83 ± 0.17 | 14
6 | COc1cc(/C=C/C(=O)CC(=O)/C=C/c2ccc(OC(=O)C(C)NC(=O)OCc3ccccc3)c(OC)c2)ccc1OC(=O)C(C)NC(=O)OCc1ccccc1 (stereo not shown) [Compound 7] | 72 | 0.67 ± 0.09 | 87 | 0.26 ± 0.07 | 97 | 0.05 ± 0.02 | 100 | 0.00 ± 0.00 | 100 | 0.00 ± 0.00 | 115
7 | COc1cc(/C=C/C(=O)CC(=O)/C=C/c2ccc(OC(=O)[C@@H](NC(=O)OCc3ccccc3)C(C)C)c(OC)c2)ccc1OC(=O)[C@@H](NC(=O)OCc1ccccc1)C(C)C [Compound 8] | 51 | 1.17 ± 0.26 | 20 | 1.65 ± 0.23 | 19 | 1.45 ± 0.20 | 12 | 1.23 ± 0.19 | 2 | 0.81 ± 0.11 | 14
8 | COc1cc(/C=C/C(=O)CC(=O)/C=C/c2ccc(OC(=O)[C@H](CC(C)C)NC(=O)OCc3ccccc3)c(OC)c2)ccc1OC(=O)[C@H](CC(C)C)NC(=O)OCc1ccccc1 [Compound 9] | 34 | 1.59 ± 0.18 | 10 | 1.85 ± 0.21 | 10 | 1.61 ± 0.18 | 11 | 1.25 ± 0.09 | 1 | 0.82 ± 0.08 | 13
9 | COc1cc(/C=C/C(=O)CC(=O)/C=C/c2ccc(OC(=O)[C@H](CCSC)NC(=O)OCc3ccccc3)c(OC)c2)ccc1OC(=O)[C@H](CCSC)NC(=O)OCc1ccccc1 [Compound 10] | 76 | 0.58 ± 0.15 | 80 | 0.41 ± 0.11 | 86 | 0.25 ± 0.08 | 88 | 0.17 ± 0.02 | 94 | 0.05 ± 0.01 | 101
10 | COc1cc(/C=C/C(=O)CC(=O)/C=C/c2ccc(OC(=O)[C@H](Cc3ccccc3)NC(=O)OCc3ccccc3)c(OC)c2)ccc1OC(=O)[C@H](Cc1ccccc1)NC(=O)OCc1ccccc1 [Compound 11] | 59 | 1.00 ± 0.07 | 24 | 1.56 ± 0.09 | 9 | 1.63 ± 0.16 | 5 | 1.38 ± 0.10 | 1 | 0.82 ± 0.13 | 6
11 | COc1cc(/C=C/C(=O)CC(=O)/C=C/c2ccc(OC(=O)[C@H](Cc3c[nH]c4ccccc34)NC(=O)OCc3ccccc3)c(OC)c2)ccc1OC(=O)[C@H](Cc1c[nH]c2ccccc12)NC(=O)OCc1ccccc1 [Compound 12] | 37 | 1.52 ± 0.27 | 28 | 1.48 ± 0.22 | 24 | 1.36 ± 0.26 | 12 | 1.23 ± 0.19 | 1 | 0.82 ± 0.17 | 14
12 | COc1cc(/C=C/C(=O)CC(=O)/C=C/c2ccc(OC(=O)CNC(=O)OCC3c4ccccc4-c4ccccc43)c(OC)c2)ccc1OC(=O)CNC(=O)OCC1c2ccccc2-c2ccccc21 [Compound 13] | 40 | 1.45 ± 0.15 | 62 | 0.78 ± 0.16 | 74 | 0.47 ± 0.11 | 79 | 0.29 ± 0.04 | 82 | 0.15 ± 0.02 | 91
13 | COc1cc(/C=C/C(=O)CC(=O)/C=C/c2ccc(OC(=O)[C@H](C)NC(=O)OCC3c4ccccc4-c4ccccc43)c(OC)c2)ccc1OC(=O)[C@H](C)NC(=O)OCC1c2ccccc2-c2ccccc21 [Compound 14] | 12 | 2.12 ± 0.29 | 23 | 1.59 ± 0.15 | 43 | 1.02 ± 0.17 | 56 | 0.62 ± 0.09 | 51 | 0.41 ± 0.05 | 64
